In experiment [1] the target is T1, baculovirus-expressed ALK (Homo sapiens, UniProt Q9UM73).
T1 construct: host or cells: baculovirus expression system
As to the kind of experiment: ALK Kinase Assay (ELISA-type, time-resolved fluorescence). Type of experiment: biochemical. The settings on record: 1 μM ATP (Km level), 30 ng/ml ALK, 37° C., 15 minutes; read-out: ALK Activity (ALK kinase inhibition, IC50 class). The procedure, abridged: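 Plates coated with phospholipase C-γ substrate (10 μg/mL in TBS); reaction started with 30 ng/ml ALK and run 15 min at 37° C. Phosphorylated substrate detected with Eu-N1-labeled PT66 antibody. IC50 from sigmoidal variable-slope fit of percent inhibition vs log concentration.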
(ELISA stands for enzyme-linked immunosorbent assay.)

In experiment [2] the target is T2, c-Met (cytoplasmic domain) (Homo sapiens, UniProt P08581).
T2 construct: 10 ng/mL c-Met (cytoplasmic domain, Invitrogen Corporation #PV3143); purchased Invitrogen Corporation PV3143
In words: c-Met Kinase Assay (same methods as for ALK, with modifications). The settings on record: 1 μM ATP (Km level), 10 ng/mL c-Met; read-out: cMet Activity (c-Met kinase inhibition, IC50 class). The experiment is classed as biochemical. In a few lines:
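Europium-labeled PT66 antibody (Eu-N1) detects substrate phosphorylation on wells coated with phospholipase C-γ at 10 μg/mL. The kinase, the cytoplasmic domain of c-Met at 10 ng/mL, starts the reaction, which proceeds 15 minutes at 37° C.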

Where only a bound is given, the exact number is not on record here.

In general, IC50 refers to the midpoint of a concentration-inhibition curve.

T1 sequence (Q9UM73 19-1620): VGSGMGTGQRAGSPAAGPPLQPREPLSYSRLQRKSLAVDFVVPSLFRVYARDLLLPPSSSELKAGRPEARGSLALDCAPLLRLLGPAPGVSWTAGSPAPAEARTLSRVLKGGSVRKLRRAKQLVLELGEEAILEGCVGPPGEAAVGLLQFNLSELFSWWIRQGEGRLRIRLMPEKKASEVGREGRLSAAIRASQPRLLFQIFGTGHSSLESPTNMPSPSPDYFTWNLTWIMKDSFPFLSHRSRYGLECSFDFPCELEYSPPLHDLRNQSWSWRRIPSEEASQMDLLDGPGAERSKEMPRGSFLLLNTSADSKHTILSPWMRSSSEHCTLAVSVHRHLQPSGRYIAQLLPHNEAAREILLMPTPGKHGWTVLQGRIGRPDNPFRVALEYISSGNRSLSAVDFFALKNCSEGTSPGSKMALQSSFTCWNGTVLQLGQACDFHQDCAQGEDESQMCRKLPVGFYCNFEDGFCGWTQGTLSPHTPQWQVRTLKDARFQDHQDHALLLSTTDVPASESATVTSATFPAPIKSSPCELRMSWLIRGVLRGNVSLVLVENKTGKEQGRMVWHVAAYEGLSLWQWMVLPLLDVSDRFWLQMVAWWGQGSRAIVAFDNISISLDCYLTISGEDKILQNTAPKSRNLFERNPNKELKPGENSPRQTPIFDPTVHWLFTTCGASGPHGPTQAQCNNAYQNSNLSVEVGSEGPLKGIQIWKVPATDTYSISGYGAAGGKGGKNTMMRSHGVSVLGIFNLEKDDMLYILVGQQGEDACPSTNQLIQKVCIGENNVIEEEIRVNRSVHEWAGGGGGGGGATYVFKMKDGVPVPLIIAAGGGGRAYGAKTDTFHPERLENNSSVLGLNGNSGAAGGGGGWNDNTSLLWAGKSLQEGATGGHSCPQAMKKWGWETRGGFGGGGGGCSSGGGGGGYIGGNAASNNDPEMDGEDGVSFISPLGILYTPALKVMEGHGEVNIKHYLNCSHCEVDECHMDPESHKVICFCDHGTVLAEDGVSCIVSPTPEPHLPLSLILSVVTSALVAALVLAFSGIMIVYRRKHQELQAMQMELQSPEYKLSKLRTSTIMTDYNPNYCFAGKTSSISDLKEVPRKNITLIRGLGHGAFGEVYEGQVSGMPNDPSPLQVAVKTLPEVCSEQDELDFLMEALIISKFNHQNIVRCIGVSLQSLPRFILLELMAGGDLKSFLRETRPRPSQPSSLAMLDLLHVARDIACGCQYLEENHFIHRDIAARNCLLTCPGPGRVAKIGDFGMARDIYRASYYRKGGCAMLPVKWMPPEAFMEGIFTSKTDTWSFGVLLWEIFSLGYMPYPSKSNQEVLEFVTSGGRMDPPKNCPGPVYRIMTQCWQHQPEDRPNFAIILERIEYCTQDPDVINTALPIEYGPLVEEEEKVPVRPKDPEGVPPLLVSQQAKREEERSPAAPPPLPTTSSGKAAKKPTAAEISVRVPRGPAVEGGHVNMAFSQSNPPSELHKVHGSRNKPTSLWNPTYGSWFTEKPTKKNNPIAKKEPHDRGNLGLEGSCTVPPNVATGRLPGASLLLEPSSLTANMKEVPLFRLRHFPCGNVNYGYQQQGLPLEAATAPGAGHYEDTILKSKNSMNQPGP
T2 sequence (P08581 956-1390 limits assumed): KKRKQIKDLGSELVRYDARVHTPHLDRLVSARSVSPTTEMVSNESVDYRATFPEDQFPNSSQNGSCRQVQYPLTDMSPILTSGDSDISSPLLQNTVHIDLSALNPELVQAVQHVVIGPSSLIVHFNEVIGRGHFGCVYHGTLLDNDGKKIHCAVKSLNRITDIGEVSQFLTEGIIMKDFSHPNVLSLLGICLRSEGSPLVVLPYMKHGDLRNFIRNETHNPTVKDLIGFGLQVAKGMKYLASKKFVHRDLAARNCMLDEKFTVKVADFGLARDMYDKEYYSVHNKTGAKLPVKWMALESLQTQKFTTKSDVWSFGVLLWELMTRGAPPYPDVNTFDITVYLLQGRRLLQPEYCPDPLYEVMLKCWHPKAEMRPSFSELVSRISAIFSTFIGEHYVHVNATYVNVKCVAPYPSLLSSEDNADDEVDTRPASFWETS

For `CCOc1ccccc1Nc1nc(Nc2cc3c(cc2OC)CCN(CC(=O)N(C)C)CC3)ncc1Cl` [Example 1144, 2-{7-[5-Chloro-4-(2-ethoxy-phenylamino)-pyrimidin-2-ylamino]-8-methoxy-1,2,4,5-tetrahydro-benzo[d]azepin-3-yl}-N,N-dimethyl-acetamide], the half-maximal inhibitory concentration (IC50) in experiment [1] was under 100 nM; in experiment [2], over 10000 nM.

`COc1cc2c(cc1Nc1ncc(Cl)c(Nc3cccc(N4CCOCC4)c3)n1)CCN(CC(=O)N(C)C)CC2` [Example 1145, 2-{7-[5-Chloro-4-(3-morpholin-4-yl-phenylamino)-pyrimidin-2-ylamino]-8-methoxy-1,2,4,5-tetrahydro-benzo[d]azepin-3-yl}-N,N-dimethyl-acetamide]: the IC50 in experiment [1] is under 100 nM; in experiment [2] it was over 10000 nM.

Regarding `COc1cc2c(cc1Nc1ncc(Cl)c(Nc3ccccc3OCC#N)n1)CCN(CC(=O)N(C)C)CC2` [Example 1147, 2-{7-[5-Chloro-4-(2-cyanomethoxy-phenylamino)-pyrimidin-2-ylamino]-8-methoxy-1,2,4,5-tetrahydro-benzo[d]azepin-3-yl}-N,N-dimethyl-acetamide], the IC50 in experiment [1] is under 100 nM; in experiment [2], over 10000 nM.

Take `COc1cc2c(cc1Nc1ncc(Cl)c(Nc3ccccc3S(C)(=O)=O)n1)CCN(CCS(C)(=O)=O)CC2` [Example 1148, 5-Chloro-N*2*-[3-(2-methanesulfonyl-ethyl)-8-methoxy-2,3,4,5-tetrahydro-1H-benzo[d]azepin-7-yl]-N*4*-(2-methanesulfonyl-phenyl)-pyrimidine-2,4-diamine]: the IC50 is under 100 nM in experiment [1] and 1000 to 10000 nM in experiment [2].

In the case of `COc1cc2c(cc1Nc1ncc(Cl)c(Nc3cc(C#N)ccc3OC)n1)CCN(CC(=O)N(C)C)CC2` [Example 1149, 2-{7-[5-Chloro-4-(5-cyano-2-methoxy-phenylamino)-pyrimidin-2-ylamino]-8-methoxy-1,2,4,5-tetrahydro-benzo[d]azepin-3-yl}-N,N-dimethyl-acetamide], the figures for the concentration for half-maximal inhibition (IC50) in experiment [1] and in experiment [2] were under 100 nM and 1000 to 10000 nM, respectively.

For the compound `COc1cc2c(cc1Nc1ncc(Cl)c(Nc3ccccc3S(=O)(=O)C(C)C)n1)CCN(CC(=O)N(C)C)CC2` [Example 1151, 2-(7-{5-Chloro-4-[2-(propane-2-sulfonyl)-phenylamino]-pyrimidin-2-ylamino}-8-methoxy-1,2,4,5-tetrahydro-benzo[d]azepin-3-yl)-N,N-dimethyl-acetamide], the IC50 in experiment [1] was under 100 nM; in experiment [2], 1000 to 10000 nM.

As to `COc1cc2c(cc1Nc1ncc(Cl)c(Nc3ccccc3S(=O)(=O)N(C)C)n1)CCN(CCS(C)(=O)=O)CC2` [Example 1152, 2-{5-Chloro-2-[3-(2-methanesulfonyl-ethyl)-8-methoxy-2,3,4,5-tetrahydro-1H-benzo[d]azepin-7-ylamino]-pyrimidin-4-ylamino}-N,N-dimethyl-benzenesulfonamide], the values for the IC50 in experiment [1] and in experiment [2] were under 100 nM and 1000 to 10000 nM, respectively.

As for `COCC(COC)N1CCc2cc(Nc3ncc(Cl)c(Nc4ccc(C(N)=O)cc4OC)n3)c(OC)cc2CC1` [Example 1153, 4-{5-Chloro-2-[8-methoxy-3-(2-methoxy-1-methoxymethyl-ethyl)-2,3,4,5-tetrahydro-1H-benzo[d]azepin-7-ylamino]-pyrimidin-4-ylamino}-3-methoxy-benzamide], the IC50 in experiment [1] is under 100 nM; in experiment [2], over 10000 nM.

`COc1cc2c(cc1Nc1ncc(Cl)c(Nc3cc(C#N)ccc3OC)n1)CCN(CC(N)=O)CC2` [Example 1154, 2-{7-[5-Chloro-4-(5-cyano-2-methoxy-phenylamino)-pyrimidin-2-ylamino]-8-methoxy-1,2,4,5-tetrahydro-benzo[d]azepin-3-yl}-acetamide]: the results for the 50% inhibitory concentration (IC50) in experiment [1] and in experiment [2] were under 100 nM and over 10000 nM, respectively.

On to `COc1cc2c(cc1Nc1ncc(Cl)c(Nc3ccc(N4CCOCC4)cc3OC)n1)CCN(CC(=O)N1CCCC1)CC2` [Example 1155, 2-{7-[5-Chloro-4-(2-methoxy-4-morpholin-4-yl-phenylamino)-pyrimidin-2-ylamino]-8-methoxy-1,2,4,5-tetrahydro-benzo[d]azepin-3-yl}-1-pyrrolidin-1-yl-ethanone], for which the half-inhibitory concentration (IC50) in experiment [1] is under 100 nM; in experiment [2], over 10000 nM.

Turning to `COCCN1CCc2cc(Nc3ncc(Cl)c(Nc4ccc(C(N)=O)cc4OC)n3)c(OC)cc2CC1` [Example 1156, 4-{5-Chloro-2-[8-methoxy-3-(2-methoxy-ethyl)-2,3,4,5-tetrahydro-1H-benzo[d]azepin-7-ylamino]-pyrimidin-4-ylamino}-3-methoxy-benzamide], the figures for the IC50 in experiment [1] and in experiment [2] were under 100 nM and over 10000 nM, respectively.

On to `COc1cc2c(cc1Nc1ncc(Cl)c(Nc3ccccc3S(=O)(=O)N(C)C)n1)CCN(CC(=O)N1CCCC1)CC2` [Example 1157, 2-{5-Chloro-2-[8-methoxy-3-(2-oxo-2-pyrrolidin-1-yl-ethyl)-2,3,4,5-tetrahydro-1H-benzo[d]azepin-7-ylamino]-pyrimidin-4-ylamino}-N,N-dimethyl-benzenesulfonamide], for which the 50% inhibitory concentration (IC50) was under 100 nM in experiment [1] and 1000 to 10000 nM in experiment [2].

For the compound `COc1cc2c(cc1Nc1ncc(Cl)c(Nc3ccccc3S(=O)(=O)C(C)C)n1)CCN(CC(=O)N1CCCC1)CC2` [Example 1158, 2-(7-{5-Chloro-4-[2-(propane-2-sulfonyl)-phenylamino]-pyrimidin-2-ylamino}-8-methoxy-1,2,4,5-tetrahydro-benzo[d]azepin-3-yl)-1-pyrrolidin-1-yl-ethanone], the IC50 was under 100 nM in experiment [1] and 1000 to 10000 nM in experiment [2].

Regarding `COc1cc2c(cc1Nc1ncc(Cl)c(N[C@H]3[C@@H](C(N)=O)[C@@H]4C=C[C@H]3C4)n1)CCN(CC(=O)N1CCCC1)CC2` [Example 1159, (1S,2S,3R,4R)-3-{5-Chloro-2-[8-methoxy-3-(2-oxo-2-pyrrolidin-1-yl-ethyl)-2,3,4,5-tetrahydro-1H-benzo[d]azepin-7-ylamino]-pyrimidin-4-ylamino}-bicyclo[2.2.1]hept-5-ene-2-carboxylic acid amide], the IC50 in experiment [1] is under 100 nM; in experiment [2], over 10000 nM.

`COc1cc2c(cc1Nc1ncc(Cl)c(N[C@@H]3CCCC[C@H]3NS(C)(=O)=O)n1)CCN(CC(=O)N1CCCC1)CC2` [Example 1160, N-((1R,2R)-2-{5-Chloro-2-[8-methoxy-3-(2-oxo-2-pyrrolidin-1-yl-ethyl)-2,3,4,5-tetrahydro-1H-benzo[d]azepin-7-ylamino]-pyrimidin-4-ylamino}-cyclohexyl)-methanesulfonamide]: the IC50 is under 100 nM in experiment [1] and over 10000 nM in experiment [2].

`COc1cc2c(cc1Nc1ncc(Cl)c(Nc3ccc(C(N)=O)cc3OC)n1)CCN(CCS(C)(=O)=O)CC2` [Example 1161, 4-{5-Chloro-2-[3-(2-methanesulfonyl-ethyl)-8-methoxy-2,3,4,5-tetrahydro-1H-benzo[d]azepin-7-ylamino]-pyrimidin-4-ylamino}-3-methoxy-benzamide]: the figures for the IC50 in experiment [1] and in experiment [2] were under 100 nM and over 10000 nM, respectively.

As to `COc1ccc(Nc2nc(Nc3cc4c(cc3OC)CCN(CC(=O)N(C)C)CC4)ncc2Cl)c(S(=O)(=O)C(C)C)c1` [Example 1162, 2-(7-{5-Chloro-4-[4-methoxy-2-(propane-2-sulfonyl)-phenylamino]-pyrimidin-2-ylamino}-8-methoxy-1,2,4,5-tetrahydro-benzo[d]azepin-3-yl)-N,N-dimethyl-acetamide], the 50% inhibitory concentration (IC50) is under 100 nM in experiment [1] and over 10000 nM in experiment [2].

Consider `COc1cc2c(cc1Nc1ncc(Cl)c(Nc3ccccc3S(=O)(=O)C(C)C)n1)CCN(CCS(C)(=O)=O)CC2` [Example 1164, 5-Chloro-N*2*-[3-(2-methanesulfonyl-ethyl)-8-methoxy-2,3,4,5-tetrahydro-1H-benzo[d]azepin-7-yl]-N*4*-[2-(propane-2-sulfonyl)-phenyl]-pyrimidine-2,4-diamine], for which the IC50 in experiment [1] is under 100 nM; in experiment [2], 1000 to 10000 nM.

As to `COCCN1CCc2cc(Nc3ncc(Cl)c(Nc4ccccc4S(=O)(=O)N(C)C)n3)c(OC)cc2CC1` [Example 1165, 2-{5-Chloro-2-[8-methoxy-3-(2-methoxy-ethyl)-2,3,4,5-tetrahydro-1H-benzo[d]azepin-7-ylamino]-pyrimidin-4-ylamino}-N,N-dimethyl-benzenesulfonamide], the IC50 in experiment [1] was under 100 nM; in experiment [2] it was 1000 to 10000 nM.

Consider `COc1cc2c(cc1Nc1ncc(Cl)c(Nc3ccc(N(C)C)cc3OC)n1)CCN(CC(=O)N(C)C)CC2` [Example 1166, 2-{7-[5-Chloro-4-(4-dimethylamino-2-methoxy-phenylamino)-pyrimidin-2-ylamino]-8-methoxy-1,2,4,5-tetrahydro-benzo[d]azepin-3-yl}-N,N-dimethyl-acetamide], for which the values for the IC50 in experiment [1] and in experiment [2] were under 100 nM and over 10000 nM, respectively.

Regarding `COc1cc2c(cc1Nc1ncc(Cl)c(Nc3ccc(N(C)C)cc3OC)n1)CCN(CCS(C)(=O)=O)CC2` [Example 1167, 5-Chloro-N*4*-(4-dimethylamino-2-methoxy-phenyl)-N*2*-[3-(2-methanesulfonyl-ethyl)-8-methoxy-2,3,4,5-tetrahydro-1H-benzo[d]azepin-7-yl]-pyrimidine-2,4-diamine], the figures for the IC50 in experiment [1] and in experiment [2] were under 100 nM and over 10000 nM, respectively.

With `COCCOc1ccc(Nc2nc(Nc3cc4c(cc3OC)CCN(CCS(C)(=O)=O)CC4)ncc2Cl)c(OC)c1` [Example 1168, 5-Chloro-N*2*-[3-(2-methanesulfonyl-ethyl)-8-methoxy-2,3,4,5-tetrahydro-1H-benzo[d]azepin-7-yl]-N*4*-[2-methoxy-4-(2-methoxy-ethoxy)-phenyl]-pyrimidine-2,4-diamine], the figures for the IC50 in experiment [1] and in experiment [2] were under 100 nM and over 10000 nM, respectively.
